Data as given in patent US20260132132A1, “3A,4,5,6-TETRAHYDRO-1 H-PYRAZOLO[3,4-C]PYRIDIN-7(7AH)-ONE DERIVATIVES AS FACTOR XIIA INHIBITORS” (KALVISTA PHARMACEUTICALS LIMITED, priority 2022, published 2026).

What was measured:
FXa = FXa (Homo sapiens, UniProt P00742); test: Related protease inhibition: FXa, fluorogenic substrate; type: biochemical; conditions: fluorogenic substrate at Km, 25° C.; H1-H3 = % activity at 40 μM
Description: Human serine protease enzyme Plasma Kallikrein, KLK1, FXa, Plasmin, Thrombin and Trypsin were assayed for enzymatic activity using an appropriate fluorogenic substrate at Km concentration, FXIa at fixed substrate concentration of 100 μM and various concentrations of the test compound.

[1] = biological target: T1, Human Factor XIIa (hFXIIa) (Homo sapiens, UniProt P00748); test: Determination of Human Factor XIIa (hFXIIa) inhibition, fluorogenic substrate IC50 assay; type: biochemical; conditions: fluorogenic substrate H-DPro-Phe-Arg-AFC at Km, 25° C., read-out: Human FXIIa IC50
T1 construct: purchased Enzyme Research Laboratories
T1 sequence (P00748 373-615 limits assumed): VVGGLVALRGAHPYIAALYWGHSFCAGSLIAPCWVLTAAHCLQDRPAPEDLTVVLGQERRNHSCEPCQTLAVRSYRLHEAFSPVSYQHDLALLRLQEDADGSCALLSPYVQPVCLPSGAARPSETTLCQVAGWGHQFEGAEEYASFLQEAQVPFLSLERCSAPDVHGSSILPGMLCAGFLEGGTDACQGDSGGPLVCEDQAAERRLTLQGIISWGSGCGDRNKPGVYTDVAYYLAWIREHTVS
T1 sequence (P00748 20-372 partner limits assumed): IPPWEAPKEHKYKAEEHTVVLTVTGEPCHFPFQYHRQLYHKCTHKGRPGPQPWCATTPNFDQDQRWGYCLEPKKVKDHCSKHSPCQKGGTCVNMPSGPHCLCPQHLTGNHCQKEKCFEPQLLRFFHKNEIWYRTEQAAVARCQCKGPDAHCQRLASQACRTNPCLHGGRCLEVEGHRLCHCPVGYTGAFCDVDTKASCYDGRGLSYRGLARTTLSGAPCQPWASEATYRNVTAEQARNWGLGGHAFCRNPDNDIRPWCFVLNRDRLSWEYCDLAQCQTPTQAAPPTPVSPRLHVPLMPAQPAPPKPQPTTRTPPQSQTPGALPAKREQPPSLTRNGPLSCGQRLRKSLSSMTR
Description: Determination of Human Factor XIIa (hFXIIa) inhibition
The Km for the cleavage of the substrate by hFXIIa was determined by standard transformation of the Michaelis-Menten equation, with subsequent inhibition assays performed at substrate Km concentration.

Chain of FXa (P00742 235-488 limits assumed): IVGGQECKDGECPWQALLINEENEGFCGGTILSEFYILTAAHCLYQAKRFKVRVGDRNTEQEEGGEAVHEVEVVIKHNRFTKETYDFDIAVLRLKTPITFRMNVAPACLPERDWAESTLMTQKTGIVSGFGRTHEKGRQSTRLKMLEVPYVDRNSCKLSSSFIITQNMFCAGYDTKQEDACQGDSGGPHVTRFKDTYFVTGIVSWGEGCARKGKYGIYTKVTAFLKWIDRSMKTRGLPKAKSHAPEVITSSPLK
Chain of FXa (P00742 41-179 partner limits assumed): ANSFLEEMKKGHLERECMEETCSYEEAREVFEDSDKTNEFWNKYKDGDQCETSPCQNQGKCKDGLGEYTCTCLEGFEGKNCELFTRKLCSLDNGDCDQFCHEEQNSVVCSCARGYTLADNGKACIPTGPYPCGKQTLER

Row | SMILES | IC50 (FXa) [µM] | IC50 [1] [µM]
1 | O=C(OCc1ccccc1)c1nn(-c2cccc(Cl)c2)c2c1CCN(c1cccc(CN3CCCCC3)c1)C2=O [Example 1006, benzyl 1-(3-chlorophenyl)-7-oxo-6-(3-(piperidin-1-ylmethyl)phenyl)-4,5,6,7-tetrahydro-1H-pyrazolo[3,4-c]pyridine-3-carboxylate] | 10 to 40 | 0.3 to 1
2 | CCOC(=O)c1nn(-c2cccc(Cl)c2)c2c1CCN(c1cccc(CN3CCCCC3)c1)C2=O [Example 1007, ethyl 1-(3-chlorophenyl)-7-oxo-6-(3-(piperidin-1-ylmethyl)phenyl)-4,5,6,7-tetrahydro-1H-pyrazolo[3,4-c]pyridine-3-carboxylate] | 10 to 40 | 0.1 to 0.3
3 | O=C(N[C@H](CO)c1ccccc1)c1nn(-c2cccc(Cl)c2)c2c1CCN(c1cccc(CN3CCCCC3)c1)C2=O [Example 1008, (S)-1-(3-chlorophenyl)-N-(2-hydroxy-1-phenylethyl)-7-oxo-6-(3-(piperidin-1-ylmethyl)phenyl)-4,5,6,7-tetrahydro-1H-pyrazolo[3,4-c]pyridine-3-carboxamide] | > 100 | 0.3 to 1
4 | O=C(c1nn(-c2cccc(Cl)c2)c2c1CCN(c1cccc(CN3CCCCC3)c1)C2=O)N1CCCC1 [Example 1009, 1-(3-chlorophenyl)-6-(3-(piperidin-1-ylmethyl)phenyl)-3-(pyrrolidine-1-carbonyl)-1,4,5,6-tetrahydro-7H-pyrazolo[3,4-c]pyridin-7-one] | > 100 | 3 to 10
5 | O=C(NC1CCCCC1)c1nn(-c2cccc(Cl)c2)c2c1CCN(c1cccc(CN3CCCCC3)c1)C2=O [Example 1010, 1-(3-chlorophenyl)-N-cyclohexyl-7-oxo-6-(3-(piperidin-1-ylmethyl)phenyl)-4,5,6,7-tetrahydro-1H-pyrazolo[3,4-c]pyridine-3-carboxamide] | > 100 | 0.3 to 1
6 | CCNC(=O)c1nn(-c2cccc(Cl)c2)c2c1CCN(c1cccc(CN3CCCCC3)c1)C2=O [Example 1011, 1-(3-chlorophenyl)-N-ethyl-7-oxo-6-(3-(piperidin-1-ylmethyl)phenyl)-4,5,6,7-tetrahydro-1H-pyrazolo[3,4-c]pyridine-3-carboxamide] | > 100 | 3 to 10
7 | CN1CCc2ccc(N3CCc4c(C(=O)NCC5CC5)nn(-c5cccc(Cl)c5)c4C3=O)cc2C1 [Example 1012, 1-(3-chlorophenyl)-N-(cyclopropylmethyl)-6-(2-methyl-1,2,3,4-tetrahydroisoquinolin-7-yl)-7-oxo-4,5,6,7-tetrahydro-1H-pyrazolo[3,4-c]pyridine-3-carboxamide] | 10 to 40 | 0.3 to 1
8 | CCNC(=O)c1nn(-c2cccc(Cl)c2)c2c1CCN(c1ccc3c(c1)CN(C)CC3)C2=O [Example 1014, 1-(3-chlorophenyl)-N-ethyl-6-(2-methyl-1,2,3,4-tetrahydroisoquinolin-7-yl)-7-oxo-4,5,6,7-tetrahydro-1H-pyrazolo[3,4-c]pyridine-3-carboxamide] | 10 to 40 | 0.3 to 1
9 | CN1CCc2ccc(N3CCc4c(C(=O)NCc5cccnc5)nn(-c5cccc(Cl)c5)c4C3=O)cc2C1 [Example 1015, 1-(3-chlorophenyl)-6-(2-methyl-1,2,3,4-tetrahydroisoquinolin-7-yl)-7-oxo-N-(pyridin-3-ylmethyl)-4,5,6,7-tetrahydro-1H-pyrazolo[3,4-c]pyridine-3-carboxamide] | 10 to 40 | 0.1 to 0.3
10 | O=C(NCc1ccccc1)c1nn(-c2cccc(Cl)c2)c2c1CCN(c1ccc3c(c1)CN(CC1CC1)CC3)C2=O [Example 1019, N-benzyl-1-(3-chlorophenyl)-6-(2-(cyclopropylmethyl)-1,2,3,4-tetrahydroisoquinolin-7-yl)-7-oxo-4,5,6,7-tetrahydro-1H-pyrazolo[3,4-c]pyridine-3-carboxamide] | > 40 | 0.1 to 0.3
11 | CN1CCc2ccc(N3CCc4c(C(=O)NCC5CCOC5)nn(-c5cccc(Cl)c5)c4C3=O)cc2C1 (centres unmarked) [Example 1026, 1-(3-chlorophenyl)-6-(2-methyl-1,2,3,4-tetrahydroisoquinolin-7-yl)-7-oxo-N-((tetrahydrofuran-3-yl)methyl)-4,5,6,7-tetrahydro-1H-pyrazolo[3,4-c]pyridine-3-carboxamide] | 10 to 40 | 0.3 to 1
12 | O=C(NCc1ccccc1)c1nn(-c2cccc(Cl)c2)c2c1CCN(c1ccc3c(c1)CN(C1CC1)CC3)C2=O [Example 1029, N-benzyl-1-(3-chlorophenyl)-6-(2-cyclopropyl-1,2,3,4-tetrahydroisoquinolin-7-yl)-7-oxo-4,5,6,7-tetrahydro-1H-pyrazolo[3,4-c]pyridine-3-carboxamide] | > 100 | 0.3 to 1
13 | CCN1CCc2ccc(N3CCc4c(C(=O)NCC5CC5)nn(-c5cccc(Cl)c5)c4C3=O)cc2C1 [Example 1031, 1-(3-chlorophenyl)-N-(cyclopropylmethyl)-6-(2-ethyl-1,2,3,4-tetrahydroisoquinolin-7-yl)-7-oxo-4,5,6,7-tetrahydro-1H-pyrazolo[3,4-c]pyridine-3-carboxamide] | 10 to 40 | 0.1 to 0.3
14 | O=C(NCC1CC1)c1nn(-c2cccc(Cl)c2)c2c1CCN(c1ccc3c(c1)CN(C1COC1)CC3)C2=O [Example 1032, 1-(3-chlorophenyl)-N-(cyclopropylmethyl)-6-(2-(oxetan-3-yl)-1,2,3,4-tetrahydroisoquinolin-7-yl)-7-oxo-4,5,6,7-tetrahydro-1H-pyrazolo[3,4-c]pyridine-3-carboxamide] | > 40 | 0.3 to 1
15 | O=C(NCC1CC1)c1nn(-c2cccc(Cl)c2)c2c1CCN(c1ccc3c(c1)CN(CC1CC1)CC3)C2=O [Example 1036, 1-(3-chlorophenyl)-N-(cyclopropylmethyl)-6-(2-(cyclopropylmethyl)-1,2,3,4-tetrahydroisoquinolin-7-yl)-7-oxo-4,5,6,7-tetrahydro-1H-pyrazolo[3,4-c]pyridine-3-carboxamide] | > 40 | 0.3 to 1

More lines, now with the values ahead:

Row | IC50 (FXa) [µM] | IC50 [1] [µM] | SMILES
16 | 3 to 10 | 0.01 to 0.1 | CN1CCc2ccc(N3CCc4c(C(=O)NCc5ccccc5)nn(-c5cccc(Cl)c5)c4C3=O)cc2C1 [Example 1005, N-benzyl-1-(3-chlorophenyl)-6-(2-methyl-1,2,3,4-tetrahydroisoquinolin-7-yl)-7-oxo-4,5,6,7-tetrahydro-1H-pyrazolo[3,4-c]pyridine-3-carboxamide]
17 | 0.3 to 1 | 0.1 to 0.3 | CCOC(=O)c1nn(-c2cccc(Cl)c2)c2c1CCN(c1ccc3c(c1)CN(C)CC3)C2=O [Example 1013, ethyl 1-(3-chlorophenyl)-6-(2-methyl-1,2,3,4-tetrahydroisoquinolin-7-yl)-7-oxo-4,5,6,7-tetrahydro-1H-pyrazolo[3,4-c]pyridine-3-carboxylate]
18 | 3 to 10 | 0.01 to 0.1 | CCN1CCc2ccc(N3CCc4c(C(=O)NCc5ccccc5)nn(-c5cccc(Cl)c5)c4C3=O)cc2C1 [Example 1021, N-benzyl-1-(3-chlorophenyl)-6-(2-ethyl-1,2,3,4-tetrahydroisoquinolin-7-yl)-7-oxo-4,5,6,7-tetrahydro-1H-pyrazolo[3,4-c]pyridine-3-carboxamide]
19 | 3 to 10 | 0.01 to 0.1 | CC(C)N1CCc2ccc(N3CCc4c(C(=O)NCc5ccccc5)nn(-c5cccc(Cl)c5)c4C3=O)cc2C1 [Example 1022, N-benzyl-1-(3-chlorophenyl)-6-(2-isopropyl-1,2,3,4-tetrahydroisoquinolin-7-yl)-7-oxo-4,5,6,7-tetrahydro-1H-pyrazolo[3,4-c]pyridine-3-carboxamide]
20 | 3 to 10 | 0.1 to 0.3 | CN1CCc2ccc(N3CCc4c(C(=O)NCC5CCCCC5)nn(-c5cccc(Cl)c5)c4C3=O)cc2C1 [Example 1023, 1-(3-chlorophenyl)-N-(cyclohexylmethyl)-6-(2-methyl-1,2,3,4-tetrahydroisoquinolin-7-yl)-7-oxo-4,5,6,7-tetrahydro-1H-pyrazolo[3,4-c]pyridine-3-carboxamide]
21 | 3 to 10 | 0.3 to 1 | CN1CCc2ccc(N3CCc4c(C(=O)NCC5CCCO5)nn(-c5cccc(Cl)c5)c4C3=O)cc2C1 (centres unmarked) [Example 1025, 1-(3-chlorophenyl)-6-(2-methyl-1,2,3,4-tetrahydroisoquinolin-7-yl)-7-oxo-N-((tetrahydrofuran-2-yl)methyl)-4,5,6,7-tetrahydro-1H-pyrazolo[3,4-c]pyridine-3-carboxamide]
22 | 3 to 10 | 0.1 to 0.3 | CN1CCCc2ccc(N3CCc4c(C(=O)NCc5ccccc5)nn(-c5cccc(Cl)c5)c4C3=O)cc2C1 [Example 1030, N-benzyl-1-(3-chlorophenyl)-6-(2-methyl-2,3,4,5-tetrahydro-1H-benzo[c]azepin-8-yl)-7-oxo-4,5,6,7-tetrahydro-1H-pyrazolo[3,4-c]pyridine-3-carboxamide]
